In the NIST ThermoML archive (doi:10.1016/j.tca.2015.06.017):

Experiment: xn = mol fraction of the nth substance listed
Conditions: Liquid, Vibrating tube method

CCCCCl [1-chlorobutane] + CCCCCCC
mass density [kg/m3]
Conditions | 293.15 K | 298.15 K
100 kPa, x2 = 0.0508 | – | 866.47
100 kPa, x2 = 0.0994 | – | 853.29
100 kPa, x2 = 0.2013 | – | 827.27
100 kPa, x2 = 0.3015 | – | 803.67
100 kPa, x2 = 0.4008 | – | 781.96
100 kPa, x2 = 0.5026 | – | 761.38
100 kPa, x2 = 0.6012 | – | 742.88
100 kPa, x2 = 0.7003 | – | 725.57
100 kPa, x2 = 0.7995 | – | 709.43
100 kPa, x2 = 0.9011 | – | 694
100 kPa, x2 = 0.9494 | – | 687.02
2000 kPa, x2 = 0.0508 | – | 868.56
2000 kPa, x2 = 0.0994 | – | 855.4
2000 kPa, x2 = 0.2013 | – | 829.39
2000 kPa, x2 = 0.3015 | – | 805.75
2000 kPa, x2 = 0.4008 | – | 784.08
2000 kPa, x2 = 0.5026 | – | 763.54
2000 kPa, x2 = 0.6012 | – | 745
2000 kPa, x2 = 0.7003 | – | 727.68
2000 kPa, x2 = 0.7995 | – | 711.52
2000 kPa, x2 = 0.9011 | – | 696.1
2000 kPa, x2 = 0.9494 | – | 689.1
5000 kPa, x2 = 0.0508 | – | 871.65
5000 kPa, x2 = 0.0994 | – | 858.46
5000 kPa, x2 = 0.2013 | – | 832.44
5000 kPa, x2 = 0.3015 | – | 808.8
5000 kPa, x2 = 0.4008 | – | 787.1
5000 kPa, x2 = 0.5026 | – | 766.44
5000 kPa, x2 = 0.6012 | – | 747.93
5000 kPa, x2 = 0.7003 | – | 730.59
5000 kPa, x2 = 0.7995 | – | 714.37
5000 kPa, x2 = 0.9011 | – | 698.9
5000 kPa, x2 = 0.9494 | – | 691.9
7000 kPa, x2 = 0.0508 | – | 873.68
7000 kPa, x2 = 0.0994 | – | 860.48
7000 kPa, x2 = 0.2013 | – | 834.46
7000 kPa, x2 = 0.3015 | – | 810.76
7000 kPa, x2 = 0.4008 | – | 789.09
7000 kPa, x2 = 0.5026 | – | 768.42
7000 kPa, x2 = 0.6012 | – | 749.89
7000 kPa, x2 = 0.7003 | – | 732.52
7000 kPa, x2 = 0.7995 | – | 716.31
7000 kPa, x2 = 0.9011 | – | 700.8
7000 kPa, x2 = 0.9494 | – | 693.79
10000 kPa, x2 = 0.0508 | – | 876.62
10000 kPa, x2 = 0.0994 | – | 863.41
10000 kPa, x2 = 0.2013 | – | 837.33
10000 kPa, x2 = 0.3015 | – | 813.6
10000 kPa, x2 = 0.4008 | – | 791.87
10000 kPa, x2 = 0.5026 | – | 771.16
10000 kPa, x2 = 0.6012 | – | 752.57
10000 kPa, x2 = 0.7003 | – | 735.16
10000 kPa, x2 = 0.7995 | – | 718.95
10000 kPa, x2 = 0.9011 | – | 703.38
10000 kPa, x2 = 0.9494 | – | 696.37
20000 kPa, x2 = 0.0508 | – | 885.92
20000 kPa, x2 = 0.0994 | – | 872.69
20000 kPa, x2 = 0.2013 | – | 846.51
20000 kPa, x2 = 0.3015 | – | 822.71
20000 kPa, x2 = 0.4008 | – | 800.83
20000 kPa, x2 = 0.5026 | 784.43 | 780.1
20000 kPa, x2 = 0.6012 | 765.68 | 761.37
20000 kPa, x2 = 0.7003 | 748.06 | 743.91
20000 kPa, x2 = 0.7995 | 731.66 | 727.56
20000 kPa, x2 = 0.9011 | 715.92 | 711.9
20000 kPa, x2 = 0.9494 | 708.79 | 704.84
30000 kPa, x2 = 0.0508 | 899 | 894.38
30000 kPa, x2 = 0.0994 | 885.66 | 881.09
30000 kPa, x2 = 0.2013 | 859.31 | 854.8
30000 kPa, x2 = 0.3015 | 835.33 | 830.93
30000 kPa, x2 = 0.4008 | 813.25 | 808.96
30000 kPa, x2 = 0.5026 | 792.34 | 788.14
30000 kPa, x2 = 0.6012 | 773.46 | 769.31
30000 kPa, x2 = 0.7003 | 755.75 | 751.75
30000 kPa, x2 = 0.7995 | 739.24 | 735.28
30000 kPa, x2 = 0.9011 | 723.44 | 719.55
30000 kPa, x2 = 0.9494 | 716.27 | 712.41
40000 kPa, x2 = 0.0508 | 906.7 | 902.26
40000 kPa, x2 = 0.0994 | 893.3 | 888.92
40000 kPa, x2 = 0.2013 | 866.83 | 862.54
40000 kPa, x2 = 0.3015 | 842.76 | 838.54
40000 kPa, x2 = 0.4008 | 820.58 | 816.49
40000 kPa, x2 = 0.5026 | 799.52 | 795.57
40000 kPa, x2 = 0.6012 | 780.6 | 776.69
40000 kPa, x2 = 0.7003 | 762.81 | 759
40000 kPa, x2 = 0.7995 | 746.17 | 742.45
40000 kPa, x2 = 0.9011 | 730.25 | 726.58
40000 kPa, x2 = 0.9494 | 723.03 | 719.41
50000 kPa, x2 = 0.0508 | 913.76 | 909.49
50000 kPa, x2 = 0.0994 | 900.34 | 896.12
50000 kPa, x2 = 0.2013 | 873.81 | 869.69
50000 kPa, x2 = 0.3015 | 849.63 | 845.59
50000 kPa, x2 = 0.4008 | 827.43 | 823.5
50000 kPa, x2 = 0.5026 | 806.3 | 802.4
50000 kPa, x2 = 0.6012 | 787.26 | 783.45
50000 kPa, x2 = 0.7003 | 769.39 | 765.7
50000 kPa, x2 = 0.7995 | 752.7 | 749.08
50000 kPa, x2 = 0.9011 | 736.68 | 733.13
50000 kPa, x2 = 0.9494 | 729.41 | 725.89
60000 kPa, x2 = 0.0508 | 920.42 | 916.33
60000 kPa, x2 = 0.0994 | 906.99 | 902.96
60000 kPa, x2 = 0.2013 | 880.39 | 876.46
60000 kPa, x2 = 0.3015 | 856.15 | 852.33
60000 kPa, x2 = 0.4008 | 833.88 | 830.1
60000 kPa, x2 = 0.5026 | 812.63 | 809.01
60000 kPa, x2 = 0.6012 | 793.52 | 790
60000 kPa, x2 = 0.7003 | 775.64 | 772.14
60000 kPa, x2 = 0.7995 | 758.87 | 755.42
60000 kPa, x2 = 0.9011 | 742.77 | 739.4
60000 kPa, x2 = 0.9494 | 735.46 | 732.12
65000 kPa, x2 = 0.0508 | 923.76 | 919.61
65000 kPa, x2 = 0.0994 | 910.28 | 906.21
65000 kPa, x2 = 0.2013 | 883.59 | 879.69
65000 kPa, x2 = 0.3015 | 859.28 | 855.51
65000 kPa, x2 = 0.4008 | 836.95 | 833.25
65000 kPa, x2 = 0.5026 | 815.67 | 812.1
65000 kPa, x2 = 0.6012 | 796.5 | 793.04
65000 kPa, x2 = 0.7003 | 778.5 | 775.16
65000 kPa, x2 = 0.7995 | 761.67 | 758.43
65000 kPa, x2 = 0.9011 | 745.52 | 742.37
65000 kPa, x2 = 0.9494 | 738.19 | 735.07
